From patent EP0813872A1, “Berberine derivates for inhibiting hsp27 production” (Kureha Chemical Industry Co., Ltd., priority 1996, dated 1997)
Where a name gives a salt, the structure may show the parent alone.

Tested on: HSP27
Assay: Inhibition of HSP27 production in heat-shocked human cancer cell lines (Western blotting)
Format: cell-based
Conditions: Western blot, 20 µM, control showed a single band
Procedure: The following various human cancer cell lines were cultured under 5% CO2, at 37 °C, except for the heat shock treatment period. The lung cancer cell line H69 (ATCC HTB 119), the gastric cancer cell line KATO III (ATCC HTB 103), the colon cancer cell line COLO 205 (ATCC CCL 222), and the prostate cancer cell line DU145 (ATCC HTB 81) were cultured in an RPMI1640 medium containing 10% inactivated fetal bovine serum (hereinafter referred to as FBS).
The uterine cancer cell line HeLa S3 (ATCC CCL 2.2) was cultured in an MEM medium containing 10% inactivated FBS.
The neuroblastoma cell line SK-N-MC (ATCC HTB 10) was cultured in an MEM medium containing non-essential amino acids (L-alanine = 8.9 mg/l, L-asparagine·H2O = 15.0 mg/l, L-aspartic acid = 13.3 mg/l, L-glutamic acid = 14.7 mg/l, glycine = 7.5 mg/l, L-proline = 11.5 mg/l and L-serine = 10.5 mg/l) and 10% inactivated FBS.
The berberine hydrochloride of the formula (III) (the final concentration = 20 µM: Matsuura Yakugyo) was added to each medium of the above human cancer cell lines 2 days after the inoculation. After the berberine hydrochloride treatment for 24 hours, a heat shock was applied at 45 °C for 15 minutes, and the cells were then cultured at 37 °C overnight. The control tests were carried out by performing the above procedures except that the berberine hydrochloride was not added.
The cells treated in the above (2) were homogenized, and the amounts of HSP27 produced were measured by the Western blotting method.
The cells treated in the above (2) were washed with phosphate buffered physiological saline [composition: KC1 = 0.2 g/l, KH2PO4 = 0.2 g/l, NaCl = 8 g/1, Na2HPO4 (anhydrous) = 1.15 g/l: hereinafter referred to as PBS(-): COSMO BIO CO. Catalogue No. 320-01], and 1 ml of lysis buffer [1.0% NP-40, 0.15 M sodium chloride, 50 mM Tris-HCl (pH 8.0), 5 mM-EDTA, 2 mM-N-ethylmaleimide, 2 mM phenylmethylsulfonyl fluoride, 2 µg/ml leupeptin, and 2 µg/ml pepstatin] was added. The whole was allowed to stand for 20 minutes on ice, and then centrifuged at 4 °C and 12000 rpm for 20 minutes. The resulting supernatant (10 µl) was added to 790 µl of PBS(-), and then 200 µl of a protein assay dye reagent solution (Dye Reagent Concentrate: Bio-Rad Laboratories, Catalogue No. 500-0006) was added. The whole was allowed to stand at room temperature for 5 minutes, and the absorbance at 595 nm was measured to determine the amounts of proteins.
For the SDS-polyacrylamide gel electrophoresis (SDS-PAGE) of the samples, the protein concentration of which were measured, aliquots containing the same amount of protein were loaded onto the gel. The SDS-PAGE was performed according to the Laemmli method (Laemmli, […]). After the electrophoresis, the blotting and then blocking were carried out. More particularly, the gel was brought into contact with a 0.45 µm nitrocellulose membrane (Schleicher & Schuell, Catalogue No. 401196) at room temperature and 100 V, using a protein-transferring apparatus (Trans-Blot Electrophoretic Transfer Cell: Bio-Rad), and blotting was carried out for 3 hours. The blotting buffer used was prepared by adding methyl alcohol to Tris-glycine buffer (pH 8.5) consisting of 0.025 M Tris and 0.192 M glycine (Tris Gly Running and Blotting Buffer; Enprotech, Mass., USA; Catalogue No. SA100034), so that the concentration of methyl alcohol became 20%. After blotting, the nitrocellulose membrane was incubated in a 10% skimmed milk-PBS(-) solution at room temperature for 30 minutes, to block non-specific bindings.
After blocking, the first antibody reaction was carried out on the nitrocellulose membrane, using a screener blotter (Sanplatec), and the anti-human-HSP27 mouse monoclonal antibody (StressGen, Victoria, B.C., Canada, Catalogue No. SPA-800). […]

COc1ccc2cc3[n+](cc2c1OC)CCc1cc2c(cc1-3)OCO2 [berberine hydrochloride]
band of the molecular weight of approximately 27 kDa (colon cancer cell line COLO 205): faint in comparison with the control tests
band of the molecular weight of approximately 27 kDa (gastric cancer cell line KATO III): faint in comparison with the control tests
band of the molecular weight of approximately 27 kDa (lung cancer cell line H69): no band of the molecular weight of approximately 27 kDa was detected
band of the molecular weight of approximately 27 kDa (neuroblastoma cell line SK-N-MC): no band of the molecular weight of approximately 27 kDa was detected
band of the molecular weight of approximately 27 kDa (prostate cancer cell line DU145): no band of the molecular weight of approximately 27 kDa was detected
band of the molecular weight of approximately 27 kDa (uterine cancer cell line HeLa S3): no band of the molecular weight of approximately 27 kDa was detected
